Assay results: US12018253B2, “Method of detecting Polycomb Repressive Complex activity” (IMBA—INSTITUT FÜR MOLEKULARE BIOTECHNOLOGIE GMBH, priority 2017, dated 2024)
Non-standard residues stand in square brackets, D forms with d. Residues, ends and D or L forms follow the SMILES beside them. *: point of attachment. Benzoyl(4-tBu) = CC(C)(C)c1ccc(C(=O)*)cc1; Lys(Et2) = CCN(CC)CCCC[C@H](N)C(=O)O

Assays:
cPRC1-TetO-mESCs = assay: Chemical inhibition in cPRC1-TetO-mESCs (TetR-Cbx7 dual GFP/BFP reporter), flow cytometry without and with Dox; type: cell-based, mouse; conditions: for initiation of reporter gene silencing: TetR-Cbx7 tethered, absence of Dox; for maintenance of reporter gene silencing (repression): presence of Dox (1 μg/ml), increasing concentrations of compound
PRC2 = target: T1, PRC2 (Mus musculus, UniProt Q61188); assay: Immuno blot of H3K27me3, Ezh2 and Cbx7 in parental TetO-mESCs treated with GSK126; type: cell-based
T1 construct: endogenous in cells; host or cells: parental TetO-mESCs (mouse embryonic stem cells derived from haploid mESCs)
T1 sequence (Q61188 whole entry): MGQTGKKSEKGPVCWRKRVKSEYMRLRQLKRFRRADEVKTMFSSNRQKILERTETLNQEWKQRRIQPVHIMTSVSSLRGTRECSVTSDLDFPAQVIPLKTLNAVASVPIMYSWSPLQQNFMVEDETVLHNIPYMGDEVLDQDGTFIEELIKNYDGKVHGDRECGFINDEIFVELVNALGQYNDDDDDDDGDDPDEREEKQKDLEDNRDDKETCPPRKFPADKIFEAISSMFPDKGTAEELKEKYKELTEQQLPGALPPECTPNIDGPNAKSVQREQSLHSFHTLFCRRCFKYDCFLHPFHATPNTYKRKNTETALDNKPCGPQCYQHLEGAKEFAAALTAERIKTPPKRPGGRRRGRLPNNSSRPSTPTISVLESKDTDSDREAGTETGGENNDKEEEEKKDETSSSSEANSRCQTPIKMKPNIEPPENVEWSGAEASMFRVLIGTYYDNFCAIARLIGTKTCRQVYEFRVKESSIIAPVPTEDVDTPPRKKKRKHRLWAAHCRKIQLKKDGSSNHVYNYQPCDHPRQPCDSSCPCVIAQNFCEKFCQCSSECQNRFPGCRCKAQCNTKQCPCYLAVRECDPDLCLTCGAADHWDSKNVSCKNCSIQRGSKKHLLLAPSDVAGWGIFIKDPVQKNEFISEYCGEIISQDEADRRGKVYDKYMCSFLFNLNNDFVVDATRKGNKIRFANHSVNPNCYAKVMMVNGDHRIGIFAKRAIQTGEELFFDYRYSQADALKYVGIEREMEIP
T1 sequence (Q921E6 whole entry partner): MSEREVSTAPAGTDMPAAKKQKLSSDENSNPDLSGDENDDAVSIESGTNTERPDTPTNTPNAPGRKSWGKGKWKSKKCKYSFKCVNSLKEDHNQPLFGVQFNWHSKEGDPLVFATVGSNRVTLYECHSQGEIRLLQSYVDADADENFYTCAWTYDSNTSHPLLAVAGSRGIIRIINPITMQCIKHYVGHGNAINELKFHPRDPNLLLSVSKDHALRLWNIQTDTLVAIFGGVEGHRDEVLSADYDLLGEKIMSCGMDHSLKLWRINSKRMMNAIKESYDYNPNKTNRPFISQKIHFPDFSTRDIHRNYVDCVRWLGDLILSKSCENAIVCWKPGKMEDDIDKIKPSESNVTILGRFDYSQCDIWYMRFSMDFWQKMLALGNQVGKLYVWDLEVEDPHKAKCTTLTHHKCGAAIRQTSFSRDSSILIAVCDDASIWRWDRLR
T1 sequence (Q80U70 whole entry partner): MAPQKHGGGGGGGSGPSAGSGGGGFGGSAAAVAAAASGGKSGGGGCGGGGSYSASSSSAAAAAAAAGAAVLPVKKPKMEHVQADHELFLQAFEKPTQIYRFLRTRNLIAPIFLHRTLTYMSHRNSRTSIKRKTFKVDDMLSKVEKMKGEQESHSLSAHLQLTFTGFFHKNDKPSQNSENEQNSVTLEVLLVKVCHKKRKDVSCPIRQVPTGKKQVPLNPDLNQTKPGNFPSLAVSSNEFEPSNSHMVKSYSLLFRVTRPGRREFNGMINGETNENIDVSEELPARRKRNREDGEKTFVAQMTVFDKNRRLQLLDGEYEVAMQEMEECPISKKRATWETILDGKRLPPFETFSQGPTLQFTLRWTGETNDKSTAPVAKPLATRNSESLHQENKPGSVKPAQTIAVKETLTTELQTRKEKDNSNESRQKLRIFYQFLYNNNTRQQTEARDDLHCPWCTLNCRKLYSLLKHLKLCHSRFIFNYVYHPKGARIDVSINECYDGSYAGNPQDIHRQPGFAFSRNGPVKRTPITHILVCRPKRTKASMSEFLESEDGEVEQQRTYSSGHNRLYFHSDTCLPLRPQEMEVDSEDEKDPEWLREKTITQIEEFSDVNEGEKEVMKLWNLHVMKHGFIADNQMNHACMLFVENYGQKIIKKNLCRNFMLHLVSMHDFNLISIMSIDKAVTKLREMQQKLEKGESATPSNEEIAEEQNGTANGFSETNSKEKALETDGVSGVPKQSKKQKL
T1 sequence (Q60972 whole entry partner): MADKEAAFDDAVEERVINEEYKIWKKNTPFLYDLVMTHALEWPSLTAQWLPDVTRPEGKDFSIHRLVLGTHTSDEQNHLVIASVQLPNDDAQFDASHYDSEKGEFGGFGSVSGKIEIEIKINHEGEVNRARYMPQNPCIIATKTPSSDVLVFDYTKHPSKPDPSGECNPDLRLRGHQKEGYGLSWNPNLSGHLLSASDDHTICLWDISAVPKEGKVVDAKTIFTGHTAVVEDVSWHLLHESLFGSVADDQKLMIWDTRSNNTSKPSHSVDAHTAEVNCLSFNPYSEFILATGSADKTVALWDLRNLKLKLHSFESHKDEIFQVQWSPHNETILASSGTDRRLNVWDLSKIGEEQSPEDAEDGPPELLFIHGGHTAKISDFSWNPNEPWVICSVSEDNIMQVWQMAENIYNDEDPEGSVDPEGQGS
Procedure: Nuclear extract from 10×10^6 mESCs was obtained by lysis in Buffer A (final: 25 mM Hepes ph 7.6, 5 mM MgCl2, 25 mM KCl, 0.05 mM EDTA, 10% Glycerol, 1 mM DTT, 1 mM PMSF, 1× Complete Mini protease inhibitor) followed by collection in RIPA buffer (final: 150 mM NaCl, 1% triton, 0.5% sodium deoxy-cholate, 0.1% SDS, 50 mM Tris pH 8.0). Nuclear extracts were homogenized by sonication in a Diagenode Bioruptor and concentration was determined by Bradford assay (Biorad). 20 μg/lane total protein was run on Novex Life Technology NuPAGE 4-12% Bis-Tris gels in Invitrogen NuPAGE MES SDS Running Buffer and transferred on a Merck Chemicals Immobilon-P Membrane (PVDF […]). The membrane was blocked (5% non-fat dry milk in 1×PBS, 0.1% Tween 20) and incubated with the following primary antibodies (5% non-fat dry milk in 1×PBS, 0.1% Tween 20): H3K27me3 (Diagenode, C15410195), Cbx7 (Abcam, ab21873), RYBP (Sigma, PRS2227), H2AK119ub (Cell Signaling, D27C4), Ezh2 (Active Motif, 39901). Finally, the membrane was incubated with corresponding secondary HRP coupled antibodies (5% non-fat dry milk in 1×PBS, 0.1% Tween 20), developed using Clarity Western ECL Substrate (Biorad) and imaged by a ChemiDoc XRS+ Imaging system (Biorad).

H3K27me3 by Western blot (PRC2; GSK126-treated parental mESCs (4 μM per FIG. 10A)) | inhibition of the catalytic activity of PRC2 (PRC2; parental TetO-mESCs, 4 μM GSK126, immuno blot) | endogenous PRC2 and cPRC1 stability (PRC2; parental TetO-mESCs, 4 μM GSK126, immuno blot of Ezh2 and Cbx7) | Compound | initiation of reporter gene silencing (cPRC1-TetO-mESCs) | reduction in silencing, distal BFP reporter compared with proximal GFP reporter (cPRC1-TetO-mESCs; presence of Dox) | maintenance of reporter gene silencing (repression) (cPRC1-TetO-mESCs)
undetectable | specific and reversible inhibition | without disrupting | CC[C@H](C)n1cc(C)c2c(C(=O)NCc3c(C)cc(C)[nH]c3=O)cc(-c3ccc(N4CCNCC4)nc3)cc21 [GSK126] | did not disrupt | more prominent at the distal BFP reporter than the proximal GFP promoter | reduced by GSK126-treatment in a dose-dependent manner
 |  |  | CCN(CC)CCCC[C@H](NC(=O)[C@H](CC(C)C)NC(=O)[C@H](C)NC(=O)[C@H](Cc1ccccc1)NC(=O)c1ccc(C(C)(C)C)cc1)C(=O)N[C@@H](CO)C(=O)OC [UNC3866] ({Benzoyl(4-tBu)}-FAL[Lys(Et2)]S-OMe) | Neither compound had a significant effect |  | disrupted only by UNC3866 treatment in a dose-dependent manner
